Numbers after ± are expanded uncertainties.
Assay: xn = mol fraction of the nth substance listed
Settings: 101 kPa, Liquid, Vibrating tube method

NCCN [ethane-1,2-diamine] + O
mass density [kg/m3]
Settings	323.15 K	328.15 K	333.15 K	338.15 K	343.15 K	348.15 K	353.15 K
x2 = 0.0401	872.83 ± 0.44	868.06 ± 0.44	863.25 ± 0.44	858.43 ± 0.43	853.59 ± 0.43	848.71 ± 0.43	843.82 ± 0.43
x2 = 0.0797	876.97 ± 0.42	872.2 ± 0.42	867.42 ± 0.42	862.6 ± 0.42	857.77 ± 0.42	852.91 ± 0.42	848.01 ± 0.41
x2 = 0.1199	881.48 ± 0.41	876.73 ± 0.41	871.95 ± 0.4	867.15 ± 0.4	862.33 ± 0.4	857.47 ± 0.4	852.59 ± 0.4
x2 = 0.1598	886.3 ± 0.39	881.56 ± 0.39	876.8 ± 0.39	872.01 ± 0.39	867.2 ± 0.39	862.35 ± 0.39	857.48 ± 0.38
x2 = 0.2003	891.39 ± 0.38	886.66 ± 0.37	881.91 ± 0.37	877.13 ± 0.37	872.32 ± 0.37	867.48 ± 0.37	862.61 ± 0.37
x2 = 0.25	897.71 ± 0.36	892.99 ± 0.36	888.25 ± 0.35	883.48 ± 0.35	878.68 ± 0.35	873.85 ± 0.35	868.98 ± 0.35
x2 = 0.2999	904.5 ± 0.34	899.79 ± 0.34	895.05 ± 0.34	890.29 ± 0.34	885.49 ± 0.33	880.67 ± 0.33	875.81 ± 0.33
x2 = 0.3497	911.88 ± 0.32	907.18 ± 0.32	902.45 ± 0.32	897.69 ± 0.32	892.89 ± 0.32	888.07 ± 0.32	883.2 ± 0.32
x2 = 0.3998	919.54 ± 0.3	914.84 ± 0.3	910.11 ± 0.3	905.35 ± 0.3	900.55 ± 0.3	895.73 ± 0.3	890.86 ± 0.3
x2 = 0.4504	927.55 ± 0.28	922.85 ± 0.28	918.12 ± 0.28	913.36 ± 0.28	908.57 ± 0.28	903.74 ± 0.28	898.87 ± 0.28
x2 = 0.5001	935.8 ± 0.27	931.11 ± 0.27	926.38 ± 0.27	921.62 ± 0.27	916.83 ± 0.27	912 ± 0.27	907.14 ± 0.26
x2 = 0.5499	944.38 ± 0.24	939.7 ± 0.24	934.98 ± 0.24	930.23 ± 0.24	925.44 ± 0.24	920.62 ± 0.24	915.76 ± 0.24
x2 = 0.5998	952.77 ± 0.22	948.12 ± 0.22	943.43 ± 0.22	938.7 ± 0.22	933.95 ± 0.22	929.15 ± 0.22	924.32 ± 0.22
x2 = 0.6499	960.7 ± 0.19	956.11 ± 0.19	951.49 ± 0.2	946.83 ± 0.2	942.13 ± 0.2	937.39 ± 0.2	932.61 ± 0.2
x2 = 0.7004	967.91 ± 0.17	963.45 ± 0.17	958.96 ± 0.17	954.42 ± 0.17	949.83 ± 0.17	945.19 ± 0.17	940.53 ± 0.17
x2 = 0.7499	973.34 ± 0.14	969.1 ± 0.15	964.81 ± 0.15	960.46 ± 0.15	956.08 ± 0.15	951.64 ± 0.15	947.14 ± 0.15
x2 = 0.8	976.78 ± 0.12	972.86 ± 0.12	968.88 ± 0.12	964.84 ± 0.12	960.73 ± 0.13	956.56 ± 0.13	952.33 ± 0.13
x2 = 0.84	978.35 ± 0.1	974.76 ± 0.1	971.09 ± 0.11	967.34 ± 0.11	963.52 ± 0.11	959.62 ± 0.11	955.65 ± 0.11
x2 = 0.88	979.3 ± 0.09	976.06 ± 0.09	972.74 ± 0.09	969.32 ± 0.09	965.81 ± 0.09	962.21 ± 0.09	958.53 ± 0.1
x2 = 0.9193	980.41 ± 0.07	977.53 ± 0.07	974.54 ± 0.08	971.43 ± 0.08	968.22 ± 0.08	964.91 ± 0.08	961.5 ± 0.08
x2 = 0.9599	982.91 ± 0.06	980.35 ± 0.06	977.65 ± 0.06	974.83 ± 0.07	971.88 ± 0.07	968.82 ± 0.07	965.65 ± 0.07
